Data on 5 molecules can be found in patent US5817324A, “Use of arylpyrroles for the control of resistant insect populations” (American Cyanamid Company, priority 1997, dated 1998).

Common to all, as to assay type: in vivo
Series [1] has as its system pyrethroid-resistant wild horn flies (Haematobia irritans). As to the kind of experiment: 24 hour treated filter paper bioassay, pyrethroid-resistant horn flies, with resistance factor (Example 1). The protocol:
(§1) Evaluation Of The Effect Of Test Compounds vs. Cypermethrin On Susceptible And Resistant Strains Of Horn Flies (Haematobia irritans).
(§2) In this bioassay, highly pyrethroid-resistant wild flies and flies of a pyrethroid-susceptible lab strain are used. All flies are held in plastic petri dishes and exposed to sequential rates of test compound residue on filter paper^1. A 1.25 inch hole is cut in the bottom half of the 100 mL petri dish and covered with fiberglass window screen. The bottom is used as the top in this bioassay, in order that the flies may be blood fed through the screened opening with a muslin pad saturated with citrated cattle blood.
(§3) The experiments are conducted in triplicate to determine 24 hour LC50 data for the test compound and cypermethrin on susceptible and pyrethroid-resistant horn flies. The experiments are conducted on site so that freshly captured pyrethroid-resistant horn flies can be used. On the exemplified site, very high levels of pyrethroid resistance had been selected through several years of pyrethroid cattle ear tag use^2. Wild pyrethroid-resistant horn flies are tested within 1 hour of capture to minimize check mortality. The resistance factor (RF) is determined by the following equation:
(§4) RF=Resistant LC50 .div.Susceptible LC50
(§5) The LC50 is the concentration in μlg/cm^2 of test com-pound required to kill 50% of the fly population tested. The LC50 values are determined from the mortality data using standard log probit analysis techniques^3, and are within 95% confidence limits^1. The data obtained is shown in Table I. The references listed below are incorporated herein by reference thereto.

The subject of series [2] is Resistant strain of horn flies (Haematobia irritans). As to the kind of experiment: treated filterpaper-tarsal contact 24 hour bioassay, resistant horn flies, with resistance factor (Example 2). Conditions: Table II; for Resistant LC50: resistant horn flies. As to the method: as §2, §3, §4, §5
(§6) Evaluation Of Test Compounds vs. Permethrin On Susceptible And Resistant Strains Of Horn Flies (Haematobia irritans)
(§7) Using essentially the standard treated filterpaper-tarsal contact 24 hour bioassay described in Example 1, the following test compounds and pyrethroid insecticide are evaluated: […]

The test system of series [3] is Susceptible strain of horn flies (Haematobia irritans). As to the kind of experiment: treated filterpaper-tarsal contact 24 hour bioassay, susceptible horn flies (Example 2). The conditions noted are these: Table II. The protocol:
as §2
(§8) The experiments are conducted in triplicate to determine 24 hour LC50 data for the test compound and cypermethrin on susceptible and pyrethroid-resistant horn flies. The experiments are conducted on site so that freshly captured pyrethroid-resistant horn flies can be used. On the exemplified site, very high levels of pyrethroid resistance had been selected through several years of pyrethroid cattle ear tag use^2. Wild pyrethroid-resistant horn flies are tested within 1 hour of capture to minimize check mortality. The resistance factor (RF) is determined by the following equation: […]
as §5, §6, §7

Series [4] relates to pyrethroid-resistant Rowena strain sheep body lice. The series can be described thus: treated cotton square contact bioassay, pyrethroid-resistant sheep body lice, with resistance factor (Example 3). The conditions noted are these: 16 hours. As to the method:
(§9) Evaluation Of Test Compound Activity Against Susceptible And Resistant Sheep Body Lice
(§10) In this evaluation, test compounds are dissolved in acetone and diluted in a gradient series. One mL aliquots of the acetone dilutions are pipetted onto 6 cm cotton squares. The treated squares are dried and put into 9 cm petri dishes. Adult lice from the pyrethroid-susceptible Peak Hill strain and the pyrethroid-resitant Rowena strain are collected by suction from sheep, transferred onto each treated square and confined using a stainless steel ring (50 mm diameter×20 mm). After 16 hours, the lice are scored as dead, moribund or alive. In this bioassay, the test compound killed, rather than knocked-down lice. Each treatment is replicated. Standard log probit analysis techniques are used to determine the LC50 and LC99 values from the mortality data, and are within 95% confidence limits. The LC50 values are then used to determine the resistance factor (RF) as shown below.
as §4
(§11) The LC50 is the concentration in mg/L of test compound required to kill 50% of the lice population tested. The LC99 is the concentration in mg/L of test compound required to kill 99% of the lice population tested.

The subject of series [5] is pyrethroid-susceptible lab strain horn flies (Haematobia irritans). As to the kind of experiment: 24 hour treated filter paper bioassay, pyrethroid-susceptible horn flies (Example 1). As to the method:
as §1, §2, §8, §5

For series [6], the system named is pyrethroid-susceptible Peak Hill strain sheep body lice. The series can be described thus: treated cotton square contact bioassay, pyrethroid-susceptible sheep body lice (Example 3). The conditions noted are these: 16 hours. As to the method: as §9, §10, §11
[7] abbreviates: Experiment 1, pyrethroid-resistant horn flies.
Setting [8] is: Experiment 2, pyrethroid-resistant horn flies.
Where [9] appears, read: Experiment 3, pyrethroid-resistant horn flies.

On to `CCOCn1c(-c2ccc(Cl)cc2)c(C#N)c(Br)c1C(F)(F)F` [Compound A, 4-bromo-2-(p-chlorophenyl)-1-(ethoxymethyl)-5-(trifluoromethyl)pyrrole-3-carbonitrile], for which the “RF (resistance factor; Resistant LC50 ÷ Susceptible LC50)” value (shortened to “RF”) in series [1] (Experiment 1) is 0.30; in series [1] (Experiment 2), 0.14; in series [1] (Experiment 3) it was 0.23; in series [2], 0.23; in series [4] (sheep body lice), 0.7048. The “Resistant LC50” value stood at 0.356 μg/cm^2 in series [1] (setting [7]); 0.294 μg/cm^2 in series [1] (setting [8]); 0.287 μg/cm^2 in series [1] (setting [9]); 0.391 μg/cm^2 in series [2]; 5.85 mg/L in series [4] (Rowena strain). For the same molecule, the “Susceptible LC50” value in series [3] worked out at 1.691 μg/cm^2; in series [5] (Experiment 1) it was 1.2 μg/cm^2; in series [5] (Experiment 2), 2.15 μg/cm^2; in series [5] (Experiment 3), 1.25 μg/cm^2; in series [6], 8.30 mg/L. The EC99 in series [4] (Rowena strain, read-out: Resistant LC99) is 24.5 µg/mL; in series [6] (read-out: Susceptible LC99) it was 52.8 µg/mL.
Take `CC1(C)C(C=C(Cl)Cl)C1C(=O)OC(C#N)c1cccc(Oc2ccccc2)c1` (centres unmarked) [Compound B, Cypermethrin, reference compound]: the entries for the “RF” value in series [1] (Experiment 1), in series [1] (Experiment 2) and in series [1] (Experiment 3) were 640, 1144 and 3636, respectively. Also, the “Resistant LC50” value turned out to be 79.02 μg/cm^2 in series [1] (setting [7]), 65.20 μg/cm^2 in series [1] (setting [8]) and 47.27 μg/cm^2 in series [1] (setting [9]). Further, the “Susceptible LC50” value in series [5] (Experiment 1) came to 0.122 μg/cm^2; in series [5] (Experiment 2) it was 0.057 μg/cm^2; in series [5] (Experiment 3), 0.013 μg/cm^2.
For `N#Cc1c(-c2ccc(Cl)cc2)[nH]c(C(F)(F)F)c1Br` [Compound C, 4-Bromo-2-(p-chlorophenyl)-5-(trifluoromethyl)pyrrole-3-carbonitrile], in series [2], the “RF” value amounted to 0.088 and the “Resistant LC50” value turned out to be 1.877 μg/cm^2. Also, the “Susceptible LC50” value in series [3] stood at 21.237 μg/cm^2.
For the molecule `CCOCn1c(-c2ccc(Cl)cc2)c(C#N)c(Cl)c1C(F)(F)F` [Compound D, 4-Chloro-2-(p-chlorophenyl)-1-(ethoxymethyl)-5-(trifluoromethyl)pyrrole-3-carbonitrile], in series [2], the “RF” value amounted to 0.123 and the “Resistant LC50” value is recorded as 1.066 μg/cm^2. Further, the “Susceptible LC50” value in series [3] came out at 8.692 μg/cm^2.
Turning to `CC1(C)C(C=C(Cl)Cl)C1C(=O)OCc1cccc(Oc2ccccc2)c1` (centres unmarked) [Compound E, Permethrin, reference compound], in series [2], the “RF” value was 80.0 and the “Resistant LC50” value is 8.16 μg/cm^2. Also, the “Susceptible LC50” value in series [3] worked out at 0.102 μg/cm^2.
